In the NIST ThermoML archive (doi:10.1021/je300632p):

Assay: xn = mol fraction of the nth substance listed
Conditions: 101 kPa, Liquid; for viscosity: Falling or rolling sphere viscometry; for mass density: Vibrating tube method

CCCCCO [pentan-1-ol] + CCO
Conditions	mass density [kg/m3]	viscosity [mPa·s]
293.15 K, x2 = 0	814.16	3.939
293.15 K, x2 = 0.101	812.81	3.557
293.15 K, x2 = 0.2	811.19	3.218
293.15 K, x2 = 0.3	809.41	2.884
293.15 K, x2 = 0.401	807.59	2.584
293.15 K, x2 = 0.5	805.44	2.272
293.15 K, x2 = 0.6	803.06	2.025
293.15 K, x2 = 0.7	800.17	1.784
293.15 K, x2 = 0.801	797.32	1.551
293.15 K, x2 = 0.901	793.6	1.349
298.15 K, x2 = 0	810.52	3.412
298.15 K, x2 = 0.101	809.14	3.098
298.15 K, x2 = 0.2	807.5	2.818
298.15 K, x2 = 0.3	805.67	2.541
298.15 K, x2 = 0.401	803.79	2.288
298.15 K, x2 = 0.5	801.6	2.021
298.15 K, x2 = 0.6	799.16	1.81
298.15 K, x2 = 0.7	796.21	1.603
298.15 K, x2 = 0.801	793.25	1.399
298.15 K, x2 = 0.901	789.45	1.222
303.15 K, x2 = 0	806.84	2.971
303.15 K, x2 = 0.101	805.44	2.713
303.15 K, x2 = 0.2	803.76	2.48
303.15 K, x2 = 0.3	801.9	2.249
303.15 K, x2 = 0.401	799.97	2.034
303.15 K, x2 = 0.5	797.73	1.805
303.15 K, x2 = 0.6	795.24	1.624
303.15 K, x2 = 0.7	792.21	1.444
303.15 K, x2 = 0.801	789.17	1.265
303.15 K, x2 = 0.901	785.28	1.109
308.15 K, x2 = 0	803.14	2.599
308.15 K, x2 = 0.101	801.71	2.385
308.15 K, x2 = 0.2	800	2.192
308.15 K, x2 = 0.3	798.1	1.997
308.15 K, x2 = 0.401	796.12	1.814
308.15 K, x2 = 0.5	793.83	1.617
308.15 K, x2 = 0.6	791.27	1.461
308.15 K, x2 = 0.7	788.18	1.304
308.15 K, x2 = 0.801	785.06	1.147
308.15 K, x2 = 0.901	781.06	1.01
313.15 K, x2 = 0	799.42	2.283
313.15 K, x2 = 0.101	797.95	2.105
313.15 K, x2 = 0.2	796.2	1.943
313.15 K, x2 = 0.3	794.26	1.779
313.15 K, x2 = 0.401	792.24	1.623
313.15 K, x2 = 0.5	789.89	1.452
313.15 K, x2 = 0.6	787.27	1.317
313.15 K, x2 = 0.7	784.11	1.181
313.15 K, x2 = 0.801	780.91	1.042
313.15 K, x2 = 0.901	776.81	0.921
318.15 K, x2 = 0	795.64	2.014
318.15 K, x2 = 0.101	794.14	1.865
318.15 K, x2 = 0.2	792.36	1.728
318.15 K, x2 = 0.3	790.38	1.59
318.15 K, x2 = 0.401	788.31	1.455
318.15 K, x2 = 0.5	785.91	1.308
318.15 K, x2 = 0.6	783.23	1.192
318.15 K, x2 = 0.7	780	1.072
318.15 K, x2 = 0.801	776.71	0.949
318.15 K, x2 = 0.901	772.51	0.841
323.15 K, x2 = 0	791.84	1.784
323.15 K, x2 = 0.101	790.29	1.658
323.15 K, x2 = 0.2	788.48	1.543
323.15 K, x2 = 0.3	786.46	1.426
323.15 K, x2 = 0.401	784.34	1.31
323.15 K, x2 = 0.5	781.88	1.181
323.15 K, x2 = 0.6	779.14	1.08
323.15 K, x2 = 0.7	775.83	0.975
323.15 K, x2 = 0.801	772.46	0.866
323.15 K, x2 = 0.901	768.16	0.771
328.15 K, x2 = 0	787.98	1.586
328.15 K, x2 = 0.101	786.4	1.48
328.15 K, x2 = 0.2	784.55	1.382
328.15 K, x2 = 0.3	782.49	1.283
328.15 K, x2 = 0.401	780.32	1.182
328.15 K, x2 = 0.5	777.8	1.07
328.15 K, x2 = 0.6	775	0.982
328.15 K, x2 = 0.7	771.63	0.889
328.15 K, x2 = 0.801	768.16	0.792
328.15 K, x2 = 0.901	763.76	0.707
